Experimental findings from the supplement of paper PMC11208160 are described below.

This data set is described as follows: recombinant UMI read abundance after kanamycin selection (control-corrected) (log10(CPM+1)); higher = more efficient recombination; extreme values may be limits of the assay; sequences stand for … in AGTGCAGAGAAAATCGGCCAGTTTTCTCTGCCTGCAGTCCGCATGCCGTGGGACCCCTTGGGTTCTAACCTGTTGCCTAGATTTATGCAGCGGACTGCCTTTCTCCCAAAGTGATAAACCGG…AGGTTGGTTTCACT; site = the 11-nt donor. The protocol:
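Pooled E. coli donor-specificity screen for the IS621 bridge recombinase. Each library member carries a reprogrammed 11-nt donor and a full-length LE bridge RNA expressed in cis from the natural promoter, with a paired donor-binding loop (8-nt LDG + 4-nt RDG) and a target-binding loop fixed to T5. It is co-electroporated with a T5 target plasmid; recombinase is induced with 0.07 mM IPTG and recombinants are selected on kanamycin. UMIs are counted as CPM, averaged over two biological replicates and corrected by the unselected control. Molecule = full bridge RNA written as DNA, built from the T5 scaffold: LDG = donor specificity nt 1-8, RDG = reverse complement of nt 8-11.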
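Also: IS621 bridge recombinase in Escherichia coli cells against a fixed T5 target plasmid.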

Consider “AACATACCATGGACCGGTTTTCCCGGTAATCCGTATTTGGA (site AACATACCTTC)”, for which the “recombinant UMI read abundance (log10)” value was determined as 0.0114. As for “AACCACTCATGGACCGGTTTTCCCGGTAATCCGTATTTGCC (site AACCACTCTGG)”, the “recombinant UMI read abundance (log10)” value stood at 3.01.

Consider “AACCATCCATGGACCGGTTTTCCCGGTAATCCGTATTTGCC (site AACCATCCTGG)”, for which the “recombinant UMI read abundance (log10)” value was 0.00555. Turning to “AACCCGGCATGGACCGGTTTTCCCGGTAATCCGTATTTGGA (site AACCCGGCTTC)”, the “recombinant UMI read abundance (log10)” value turned out to be 0.181.

Regarding “AACCCTCCATGGACCGGTTTTCCCGGTAATCCGTATTTGAT (site AACCATCCTAT)”, the “recombinant UMI read abundance (log10)” value stood at 0.00728. Take “AACCCTCCATGGACCGGTTTTCCCGGTAATCCGTATTTGAT (site AACCCTCCTAT)”: the “recombinant UMI read abundance (log10)” value was determined as 0.115. With “AACCCTCCATGGACCGGTTTTCCCGGTAATCCGTATTTGAT (site AACCGTCCTAT)”, the “recombinant UMI read abundance (log10)” value came out at 0.015.

For “AACCCTCCATGGACCGGTTTTCCCGGTAATCCGTATTTGAT (site AACCTTCCTAT)”, the “recombinant UMI read abundance (log10)” value amounted to 0.011. With “AACCGCCCATGGACCGGTTTTCCCGGTAATCCGTATTTGAA (site AACCGCCCTTT)”, the “recombinant UMI read abundance (log10)” value came out at 0.156. Next, “AACCGTCCATGGACCGGTTTTCCCGGTAATCCGTATTTGTT (site AACCGTCCTAA)”: 0.00892; “AACCGTCCATGGACCGGTTTTCCCGGTAATCCGTATTTGTT (site AACCGTCCTAC)”: 0.0168. As to “AACCGTCCATGGACCGGTTTTCCCGGTAATCCGTATTTGTT (site AACCGTCCTAG)”, the “recombinant UMI read abundance (log10)” value was 0.794.

On to “AACCGTCCATGGACCGGTTTTCCCGGTAATCCGTATTTGTT (site AACCGTCCTAT)”, for which the “recombinant UMI read abundance (log10)” value was 0.0199. To “AACCTCTCATGGACCGGTTTTCCCGGTAATCCGTATTTGCC (site AACCTCTCTGG)” belongs 2.62. Consider “AACGAGCCATGGACCGGTTTTCCCGGTAATCCGTATTTGGC (site AACGAGCCTGC)”, for which the “recombinant UMI read abundance (log10)” value turned out to be 0.

On to “AACGATCCATGGACCGGTTTTCCCGGTAATCCGTATTTGGC (site AACGATCCTGC)”, for which the “recombinant UMI read abundance (log10)” value was determined as 1.07.

For the sequence “AACGGCCCATGGACCGGTTTTCCCGGTAATCCGTATTTGTT (site AACGGCCCTAA)”, the “recombinant UMI read abundance (log10)” value worked out at 0. As to “AACGGCCCATGGACCGGTTTTCCCGGTAATCCGTATTTGTT (site CACGGCCCTAA)”, the “recombinant UMI read abundance (log10)” value amounted to 0.071. Regarding “AACGGCCCATGGACCGGTTTTCCCGGTAATCCGTATTTGTT (site GACGGCCCTAA)”, the “recombinant UMI read abundance (log10)” value came out at 0.0173.

As for “AACGGCCCATGGACCGGTTTTCCCGGTAATCCGTATTTGTT (site TACGGCCCTAA)”, the “recombinant UMI read abundance (log10)” value was found to be 0.00583. “AACTAAGCATGGACCGGTTTTCCCGGTAATCCGTATTTGGT (site AACTAAGCTAC)”: the “recombinant UMI read abundance (log10)” value was 1.25. For the sequence “AACTAGACATGGACCGGTTTTCCCGGTAATCCGTATTTGGG (site AACTAGACTCC)”, the “recombinant UMI read abundance (log10)” value stood at 0.0148.

On to “AACTAGACATGGACCGGTTTTCCCGGTAATCCGTATTTGGG (site ACCTAGACTCC)”, for which the “recombinant UMI read abundance (log10)” value was determined as 0.0296. On to “AACTAGACATGGACCGGTTTTCCCGGTAATCCGTATTTGGG (site AGCTAGACTCC)”, for which the “recombinant UMI read abundance (log10)” value is 0.0187.

“AACTAGACATGGACCGGTTTTCCCGGTAATCCGTATTTGGG (site ATCTAGACTCC)”: the “recombinant UMI read abundance (log10)” value was 0.0377. To “AACTAGACATGGACCGGTTTTCCCGGTAATCCGTATTTGGT (site AACTAGACTAC)” belongs 0.776; to “AACTATTCATGGACCGGTTTTCCCGGTAATCCGTATTTGTC (site AACTATTCTGA)”, 0.671; to “AACTCTACATGGACCGGTTTTCCCGGTAATCCGTATTTGAT (site AACTCTACTAT)”, 0.82. With “AACTGTCCATGGACCGGTTTTCCCGGTAATCCGTATTTGAT (site AACAGTCCTAT)”, the “recombinant UMI read abundance (log10)” value stood at 0.00914.

As for “AACTGTCCATGGACCGGTTTTCCCGGTAATCCGTATTTGAT (site AACCGTCCTAT)”, the “recombinant UMI read abundance (log10)” value was 0.423. For “AACTGTCCATGGACCGGTTTTCCCGGTAATCCGTATTTGAT (site AACGGTCCTAT)”, the “recombinant UMI read abundance (log10)” value is 0.0127. As to “AACTGTCCATGGACCGGTTTTCCCGGTAATCCGTATTTGAT (site AACTGTCCTAT)”, the “recombinant UMI read abundance (log10)” value was found to be 0.173.

Consider “AAGAACACATGGACCGGTTTTCCCGGTAATCCGTATTTGAT (site AAGAACACTAT)”, for which the “recombinant UMI read abundance (log10)” value amounted to 2.22.

Turning to “AAGAAGACATGGACCGGTTTTCCCGGTAATCCGTATTTGCA (site AAGAAGACTTG)”, the “recombinant UMI read abundance (log10)” value was found to be 2.73. For “AAGAAGACATGGACCGGTTTTCCCGGTAATCCGTATTTGCA (site ACGAAGACTTG)”, the “recombinant UMI read abundance (log10)” value worked out at 1.66. Turning to “AAGAAGACATGGACCGGTTTTCCCGGTAATCCGTATTTGCA (site AGGAAGACTTG)”, the “recombinant UMI read abundance (log10)” value turned out to be 2.2. Next, “AAGAAGACATGGACCGGTTTTCCCGGTAATCCGTATTTGCA (site ATGAAGACTTG)”: 1.95; “AAGAATACATGGACCGGTTTTCCCGGTAATCCGTATTTGCA (site AAGAATACTTG)”: 1.67; “AAGAATACATGGACCGGTTTTCCCGGTAATCCGTATTTGCA (site CAGAATACTTG)”: 1.37. For “AAGAATACATGGACCGGTTTTCCCGGTAATCCGTATTTGCA (site GAGAATACTTG)”, the “recombinant UMI read abundance (log10)” value turned out to be 0. As to “AAGAATACATGGACCGGTTTTCCCGGTAATCCGTATTTGCA (site TAGAATACTTG)”, the “recombinant UMI read abundance (log10)” value was 1.7. Next, “AAGACGCCATGGACCGGTTTTCCCGGTAATCCGTATTTGAT (site AAGACGCCTAT)”: 0.386. To “AAGACTACATGGACCGGTTTTCCCGGTAATCCGTATTTGAC (site AAGACTACTGT)” belongs 2.69; to “AAGACTACATGGACCGGTTTTCCCGGTAATCCGTATTTGAC (site ACGACTACTGT)”, 0.383.

“AAGACTACATGGACCGGTTTTCCCGGTAATCCGTATTTGAC (site AGGACTACTGT)”: the “recombinant UMI read abundance (log10)” value was 1.33.

Regarding “AAGACTACATGGACCGGTTTTCCCGGTAATCCGTATTTGAC (site ATGACTACTGT)”, the “recombinant UMI read abundance (log10)” value was 1.25. In the case of “AAGATTTCATGGACCGGTTTTCCCGGTAATCCGTATTTGGA (site AAGATTTCTTC)”, the “recombinant UMI read abundance (log10)” value was 2.1. As for “AAGCACGCATGGACCGGTTTTCCCGGTAATCCGTATTTGTG (site AAGCACGCTCA)”, the “recombinant UMI read abundance (log10)” value was 1.42. To “AAGCACGCATGGACCGGTTTTCCCGGTAATCCGTATTTGTG (site AAGCACGCTCC)” belongs 0; to “AAGCACGCATGGACCGGTTTTCCCGGTAATCCGTATTTGTG (site AAGCACGCTCG)”, 1.22; to “AAGCACGCATGGACCGGTTTTCCCGGTAATCCGTATTTGTG (site AAGCACGCTCT)”, 0.906. Next, “AAGCAGGCATGGACCGGTTTTCCCGGTAATCCGTATTTGGG (site AAGCAAGCTCC)”: 0.00504; “AAGCAGGCATGGACCGGTTTTCCCGGTAATCCGTATTTGGG (site AAGCACGCTCC)”: 0.0214. In the case of “AAGCAGGCATGGACCGGTTTTCCCGGTAATCCGTATTTGGG (site AAGCAGGCTCC)”, the “recombinant UMI read abundance (log10)” value came to 0.367. “AAGCAGGCATGGACCGGTTTTCCCGGTAATCCGTATTTGGG (site AAGCATGCTCC)”: the “recombinant UMI read abundance (log10)” value stood at 0.00333. Next, “AAGCCAGCATGGACCGGTTTTCCCGGTAATCCGTATTTGGG (site AAGCCAGCTCC)”: 0.00996; “AAGCGGGCATGGACCGGTTTTCCCGGTAATCCGTATTTGAC (site AAGCGGGCTGT)”: 1.62; “AAGCTGTCATGGACCGGTTTTCCCGGTAATCCGTATTTGAT (site AAGCTGTCTAT)”: 0.353. “AAGGACACATGGACCGGTTTTCCCGGTAATCCGTATTTGAG (site AAGGACACTCT)”: the “recombinant UMI read abundance (log10)” value was determined as 2.09. With “AAGGACGCATGGACCGGTTTTCCCGGTAATCCGTATTTGGG (site AAGAACGCTCC)”, the “recombinant UMI read abundance (log10)” value turned out to be 0.307. As to “AAGGACGCATGGACCGGTTTTCCCGGTAATCCGTATTTGGG (site AAGCACGCTCC)”, the “recombinant UMI read abundance (log10)” value worked out at 0.0166. Regarding “AAGGACGCATGGACCGGTTTTCCCGGTAATCCGTATTTGGG (site AAGGACGCTCC)”, the “recombinant UMI read abundance (log10)” value worked out at 0.789.

In the case of “AAGGACGCATGGACCGGTTTTCCCGGTAATCCGTATTTGGG (site AAGTACGCTCC)”, the “recombinant UMI read abundance (log10)” value was 0.0226. For “AAGGATCCATGGACCGGTTTTCCCGGTAATCCGTATTTGGT (site AAGGATCCTAC)”, the “recombinant UMI read abundance (log10)” value came out at 0.373.

On to “AAGGGTCCATGGACCGGTTTTCCCGGTAATCCGTATTTGAT (site AAGGGTCCTAT)”, for which the “recombinant UMI read abundance (log10)” value came out at 0.0248.
